Assay results from US3937818A, “Benzylamine narcotic antagonists” (American Home Products Corporation, priority 1974, dated 1976).

These molecules were tested on Morphine Induced Loss of Righting Reflex (assay: Antagonism of Morphine Induced Loss of Righting Reflex). Conditions: Rattus norvegicus, im; rats; morphine base 75 mg/kg subcutaneously; antagonist intramuscularly 40 minutes after the morphine; measured at 20 minute intervals for 2 hours; read-out: ED50 (dose for 50 percent reversal of the loss of righting reflex).
Format: in vivo, male Charles River rats
Method: Groups of three male Charles River rats (160 to 200 g.) were dosed subcutaneously with morphine base at 75 mg/kg. The degree of narcosis was measured at 15 and 30 minutes after injection. Criterion was loss of righting reflex. Antagonists were administered 40 minutes after the morphine. The degree of antagonism was measured at 20 minute intervals for 2 hours. Nalorphine at 2 mg/kg. served as a positive control while one group of morphinized rats in each determination received no antagonist and served as negative controls. Compounds were dissolved in water or suspended in Tween-80 and water and were administered intramuscularly. Each dose of the antagonist was tested in a minimum of three experiments. At least three doses of each antagonist was used to determine the ED50. For each experiment the degree of reversal, by the antagonist, of the loss of righting reflex induced by morphine was calculated in the following manner. The total number of periods of loss of righting reflex in the experimental group was divided by the total number of periods of loss of righting reflex in the control group. This number was converted to percent and subtracted from 100 to give percent reversal of loss of righting reflex. The dose for which a 50 percent reversal of the loss of righting reflex was observed is the ED50.

Row | Structure (SMILES) | ED50 [mg/kg]
1 | CN(C)C(c1cccc(O)c1)[C@@H]1CCCC[C@@H]1OCc1ccccc1 (single isomer, unassigned) [(l)-α-dimethylamino-α-(cis-2-benzyloxycyclohexyl)-m-cresol] | 0.35
2 | CN(C)C(c1cccc(O)c1)[C@@H]1CCCC[C@@H]1OCc1ccccc1 (stereo partly drawn) [(dl)-α-dimethylamino-α-(cis-2-benzyloxycyclohexyl)-m-cresol] | 0.95
3 | CCO[C@@H]1CCCC[C@@H]1C(c1cccc(O)c1)N(C)C (stereo partly drawn) [(dl)-α-dimethylamino-α-(cis-2-ethoxycyclohexyl)-m-cresol] | 2
4 | C=CCN1CC[C@]23c4c5ccc(O)c4O[C@H]2[C@@H](O)C=C[C@H]3[C@H]1C5 [Nalorphine, reference compound] | 1
